Laboratory results: patent publication US11339161B2, “Triazolo pyridines as modulators of gamma-secretase” (Boehringer Ingelheim International GmbH, priority 2017, dated 2022)
Read-outs that look alike come from different tables or passages of the source.

Experiments:
MAP4K2 (GCK) = target: T1, MAP4K2 (GCK) (Homo sapiens, UniProt Q12851); assay: Z'-LYTE SelectScreen biochemical kinase assay MAP4K2 (GCK)
T1 sequence (Q12851 1-820): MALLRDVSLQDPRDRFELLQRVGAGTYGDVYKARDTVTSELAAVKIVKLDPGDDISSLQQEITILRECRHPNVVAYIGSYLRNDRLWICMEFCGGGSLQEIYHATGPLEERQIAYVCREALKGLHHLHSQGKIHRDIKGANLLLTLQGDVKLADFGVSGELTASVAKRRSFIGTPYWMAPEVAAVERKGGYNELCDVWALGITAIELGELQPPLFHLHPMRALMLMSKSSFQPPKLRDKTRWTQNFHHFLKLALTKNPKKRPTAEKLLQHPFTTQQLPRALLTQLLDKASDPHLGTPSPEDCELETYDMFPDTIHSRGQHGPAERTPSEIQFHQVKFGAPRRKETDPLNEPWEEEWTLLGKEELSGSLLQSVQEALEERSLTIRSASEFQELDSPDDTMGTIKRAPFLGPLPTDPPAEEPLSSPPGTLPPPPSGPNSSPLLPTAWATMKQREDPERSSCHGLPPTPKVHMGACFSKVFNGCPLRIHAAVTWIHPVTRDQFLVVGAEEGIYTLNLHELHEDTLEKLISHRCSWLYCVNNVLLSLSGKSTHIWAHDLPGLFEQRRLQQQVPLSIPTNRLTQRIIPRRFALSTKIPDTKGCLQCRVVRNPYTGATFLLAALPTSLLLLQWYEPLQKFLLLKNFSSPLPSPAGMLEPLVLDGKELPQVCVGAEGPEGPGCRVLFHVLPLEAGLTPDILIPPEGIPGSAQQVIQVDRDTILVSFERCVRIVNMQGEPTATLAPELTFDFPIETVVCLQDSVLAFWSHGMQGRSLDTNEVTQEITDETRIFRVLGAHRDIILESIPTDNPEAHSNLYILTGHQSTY
From the text: (§1) Thermo Fisher Scientific SelectScreen™ Biochemical Kinase Profiling Service Z′-LYTE™ Screening Protocol and Assay Conditions Assay Theory
(§2) The […] biochemical assay employs a fluorescence-based, coupled-enzyme format and is based on the differential sensitivity of phosphorylated and non-phosphorylated peptides to proteolytic cleavage. The peptide substrate is labeled with two fluorophores—one at each end—that make up a FRET pair. In the primary reaction, the kinase transfers the gamma-phosphate of ATP to a single tyrosine, serine or threonine residue in a synthetic FRET-peptide. In the secondary reaction, a site-specific protease recognizes and cleaves non-phosphorylated FRET-peptides. Phosphorylation of FRET-peptides suppresses cleavage by the Development Reagent. Cleavage disrupts FRET between the donor (i.e., coumarin) and acceptor (i.e., fluorescein) fluorophores on the FRET-peptide, whereas uncleaved, phosphorylated FRET-peptides maintain FRET. A ratiometric method, which calculates the ratio (Emission Ratio=Coumarin emission (445 nm)/Fluorescein emission (520 nm)) of donor emission to acceptor emission after excitation of the donor fluorophore at 400 nm, is used to quantitate reaction progress, as shown in the equation below. A significant benefit of this ratiometric method for quantitating reaction progress is the elimination of well-to-well variations in FRET-peptide concentration and signal intensities. As a result, the assay yields very high Z′-factor values (>0.7) at a low percent phosphorylation. Both cleaved and uncleaved FRET-peptides contribute to the fluorescence signals and therefore to the Emission Ratio. The extent of phosphorylation of the FRET-peptide can be calculated from the Emission Ratio. The Emission Ratio will remain low if the FRET-peptide is phosphorylated (i.e., no kinase inhibition) and will be high if the FRET-peptide is non-phosphorylated (i.e., kinase inhibition).
(§3) The Test Compounds are screened in 1% DMSO (final) in the well. For 10 point titrations, 3-fold serial dilutions are conducted from the starting concentration of the customer's choosing.
(§4) All Peptide/Kinase Mixtures are diluted to a 2× working concentration in the appropriate Kinase Buffer (see section Kinase Specific Assay Conditions for a complete description).
(§5) All ATP Solutions are diluted to a 4× working concentration in Kinase Buffer (50 mM HEPES pH 7.5, 0.01% BRIJ-35, 10 mM MgCl2, 1 mM EGTA). ATP Km apparent is previously determined using a Z″-LYTE assay.
(§6) The Development Reagent is diluted in Development Buffer (see section Kinase-Specific Assay Conditions—Direct and Cascade for a complete description).
(§7) Bar-coded Corning, low volume NBS, black 384-well plate (Corning Cat. #4514) • 1. 100 nL—100× Test Compound in 100% DMSO • 2. 2.4 μL—Kinase buffer • 3. 5 μL—2× Peptide/Kinase Mixture • 4. 2.5 μL—4×ATP Solution • 5. 30—second plate shake • 6. 60—minute Kinase Reaction incubation at room temperature • 7. 5 μL—Development Reagent Solution • 8. 30—second plate shake • 9. 60—minute Development Reaction incubation at room temperature • 10. Read on fluorescence plate reader and analyze the data Z′-LYTE Assay Controls
(§8) SelectScreen Kinase Profiling Service uses XLfit from IDBS. The dose response curve is curve fit to model number 205 (sigmoidal dose-response model).
(§9) The 2×MAP4K2 (GCK)/Ser/Thr 07 mixture is prepared in 50 mM HEPES pH 7.5, 0.01% BRIJ-35, 10 mM MgCl2, 1 mM EGTA. The final 10 μL Kinase Reaction consists of 0.11-3 ng MAP4K2 (GCK) and 2 μM Ser/Thr 07 in 50 mM HEPES pH 7.5, 0.01% BRIJ-35, 10 mM MgCl2, 1 mM EGTA. After the 1 hour Kinase Reaction incubation, 5 μL of a 1:45000 dilution of Development Reagent A is added.

MAP4K4 (HGK) = MAP4K4 (HGK) (Homo sapiens, UniProt O95819); assay: Z'-LYTE SelectScreen biochemical kinase assay MAP4K4 (HGK)
Sequence of MAP4K4 (HGK) (O95819 whole entry): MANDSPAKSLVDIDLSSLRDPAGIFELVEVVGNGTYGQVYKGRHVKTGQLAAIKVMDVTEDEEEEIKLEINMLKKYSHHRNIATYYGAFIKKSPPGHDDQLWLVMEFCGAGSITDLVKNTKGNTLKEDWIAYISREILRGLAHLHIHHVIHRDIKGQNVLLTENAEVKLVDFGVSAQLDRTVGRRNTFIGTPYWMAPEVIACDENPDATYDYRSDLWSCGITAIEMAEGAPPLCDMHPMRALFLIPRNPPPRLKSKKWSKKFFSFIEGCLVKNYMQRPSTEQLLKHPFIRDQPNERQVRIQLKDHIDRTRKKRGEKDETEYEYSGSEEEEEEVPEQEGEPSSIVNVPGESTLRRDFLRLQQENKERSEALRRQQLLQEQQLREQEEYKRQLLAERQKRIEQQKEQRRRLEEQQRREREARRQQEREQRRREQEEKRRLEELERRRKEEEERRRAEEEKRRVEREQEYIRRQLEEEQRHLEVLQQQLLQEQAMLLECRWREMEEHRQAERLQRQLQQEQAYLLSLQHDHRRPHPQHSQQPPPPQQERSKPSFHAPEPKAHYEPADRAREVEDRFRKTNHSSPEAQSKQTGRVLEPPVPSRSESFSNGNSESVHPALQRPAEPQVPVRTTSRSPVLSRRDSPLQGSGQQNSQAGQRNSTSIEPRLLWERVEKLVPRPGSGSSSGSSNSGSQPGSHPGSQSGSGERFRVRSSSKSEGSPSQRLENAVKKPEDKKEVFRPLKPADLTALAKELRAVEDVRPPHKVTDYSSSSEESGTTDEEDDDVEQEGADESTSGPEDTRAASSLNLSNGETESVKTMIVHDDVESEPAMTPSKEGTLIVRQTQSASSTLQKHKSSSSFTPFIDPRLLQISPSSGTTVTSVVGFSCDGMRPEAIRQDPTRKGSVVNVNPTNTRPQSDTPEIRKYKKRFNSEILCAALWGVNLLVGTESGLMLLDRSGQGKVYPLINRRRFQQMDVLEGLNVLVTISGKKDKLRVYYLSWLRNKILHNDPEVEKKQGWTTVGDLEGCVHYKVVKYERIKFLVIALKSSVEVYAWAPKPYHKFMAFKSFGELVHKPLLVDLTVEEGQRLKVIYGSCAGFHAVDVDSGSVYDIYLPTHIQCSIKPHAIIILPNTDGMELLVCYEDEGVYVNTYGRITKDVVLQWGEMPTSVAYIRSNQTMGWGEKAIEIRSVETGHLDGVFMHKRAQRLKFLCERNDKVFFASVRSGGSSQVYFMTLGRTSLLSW
From the text: as §1, §2, §3, §4, §5, §6, §7, §8
as §9, with “2×MAP4K4 (HGK)/Ser/Thr” for “2×MAP4K2 (GCK)/Ser/Thr”, “0.36-1.82” for “0.11-3”, “MAP4K4 (HGK)” for “MAP4K2 (GCK)”

[1] = 10 μmolar compound concentration, ATP at Km app, read-out: MAP4K2 (GCK) inhibition
[2] = read-out: % Inhibition mean MAP4K2 (GCK)
[3] = 10 μmolar compound concentration, ATP at Km app, read-out: MAP4K4 (HGK) inhibition
[4] = read-out: % Inhibition mean MAP4K4 (HGK)

inhibition at 10 µM (MAP4K2 (GCK); [1]) [%] | inhibition at 10 µM (MAP4K2 (GCK); [2]) [%] | inhibition at 10 µM (MAP4K4 (HGK); [3]) [%] | inhibition at 10 µM (MAP4K4 (HGK); [4]) [%] | SMILES
< 40 | 12 | < 40 | 11 | CCn1ncc2c1CC[C@H](Nc1nc3c(-c4ccc(F)c(Cl)c4)cccn3n1)C2 [Example S-61, (S)-[8-(3-Chloro-4-fluoro-phenyl)-[1,2,4]triazolo[1,5-a]pyridine-2-yl]-(1-ethyl-4,5,6,7-tetrahydro-1H-indazol-5-yl)-amine]
< 40 | 22 | 40 to 80 | 57 | CCn1ncc2c1CCC(Nc1nc3c(-c4cccc(Cl)c4)cccn3n1)C2 (centres unmarked) [Example 59, [8-(3-Chloro-phenyl)-[1,2,4]triazolo[1,5-a]pyridine-2-yl]-(1-ethyl-4,5,6,7-tetrahydro-1H-indazol-5-yl)-amine]
40 to 80 | 49 | 40 to 80 | 74 | CCn1ncc2c1CCC(Nc1nc3c(-c4cncc(Cl)c4)cccn3n1)C2 (centres unmarked) [Example 73, [8-(5-Chloro-pyridin-3-yl)-[1,2,4]triazolo[1,5-a]pyridine-2-yl]-(1-ethyl-4,5,6,7-tetrahydro-1H-indazol-5-yl)-amine]
< 40 | 7 | 40 to 80 | 56 | CCn1ncc2c1CCC(Nc1nc3c(-c4cncc(OC)c4)cccn3n1)C2 (centres unmarked) [Example 70, (1-Ethyl-4,5,6,7-tetrahydro-1H-indazol-5-yl)-[8-(5-methoxy-pyridin-3-yl)-[1,2,4]triazolo[1,5-a]pyridine-2-yl]-amine]
< 40 | 27 | < 40 | 25 | CCc1nn(C)c2c1CCC(Nc1nc3c(-c4ccc(F)cc4C)cccn3n1)C2 (centres unmarked) [Example 54, (3-Ethyl-1-methyl-4,5,6,7-tetrahydro-1H-indazol-6-yl)-[8-(4-fluoro-2-methyl-phenyl)-[1,2,4]triazolo[1,5-a]pyridine-2-yl]-amine]
< 40 | 3 | < 40 | 24 | CCn1ncc2c1CC[C@@H](Nc1nc3c(-c4ccc(F)c(Cl)c4)cccn3n1)C2 [Example R-61, (R)-[8-(3-Chloro-4-fluoro-phenyl)-[1,2,4]triazolo[1,5-a]pyridine-2-yl]-(1-ethyl-4,5,6,7-tetrahydro-1H-indazol-5-yl)-amine]
< 40 | 14 | 40 to 80 | 49 | CCn1ncc2c1CCC(Nc1nc3c(-c4ccc(C)nc4)cccn3n1)C2 (centres unmarked) [Example 67, (1-Ethyl-4,5,6,7-tetrahydro-1H-indazol-5-yl)-[8-(6-methyl-pyridin-3-yl)-[1,2,4]triazolo[1,5-a]pyridine-2-yl]-amine]
< 40 | 22 | < 40 | -8 | CCn1nnc2c1CCC(Nc1nc3c(-c4ccc(F)cc4C)cccn3n1)C2 (centres unmarked) [Example 51, (1-Ethyl-4,5,6,7-tetrahydro-1H-benzotriazol-5-yl)-[8-(4-fluoro-2-methyl-phenyl)-[1,2,4]triazolo[1,5-a]pyridine-2-yl]-amine]

More lines, now with the values behind:

SMILES | inhibition at 10 µM (MAP4K2 (GCK); [1]) [%] | inhibition at 10 µM (MAP4K2 (GCK); [2]) [%] | inhibition at 10 µM (MAP4K4 (HGK); [3]) [%] | inhibition at 10 µM (MAP4K4 (HGK); [4]) [%]
CCCn1ncc2c1CCC(Nc1nc3c(-c4ccc(F)cc4C)cccn3n1)C2 (centres unmarked) [Example 43, [8-(4-fluoro-2-methyl-phenyl)-[1,2,4]triazolo[1,5-a]pyridine-2-yl]-(1-propyl-4,5,6,7-tetrahydro-1H-indazol-5-yl)-amine] | < 40 | 9 | 40 to 80 | 40
Cc1cc(F)ccc1-c1cccn2nc(NC3CCc4c(cnn4C(C)C)C3)nc12 (centres unmarked) [Example 44, [8-(4-fluoro-2-methyl-phenyl)-[1,2,4]triazolo[1,5-a]pyridine-2-yl]-(1-isopropyl-4,5,6,7-tetrahydro-1H-indazol-5-yl)-amine] | < 40 | 26 | < 40 | 37
Cc1cc(F)ccc1-c1cccn2nc(NC3CCc4c(cnn4C)C3)nc12 (centres unmarked) [Example 10, [8-(4-fluoro-2-methyl-phenyl)-[1,2,4]triazolo[1,5-a]pyridine-2-yl]-(1-methyl-4,5,6,7-tetrahydro-1H-indazol-5-yl)-amine] | < 40 | 8 | < 40 | 37
Cc1cc(F)ccc1-c1cccn2nc(NC3CCc4c(cnn4CC(C)C)C3)nc12 (centres unmarked) [Example 45, [8-(4-fluoro-2-methyl-phenyl)-[1,2,4]triazolo[1,5-a]pyridine-2-yl]-(1-isobutyl-4,5,6,7-tetrahydro-1H-indazol-5-yl)-amine] | < 40 | 24 | < 40 | 2
CCn1ncc2c1CCC(Nc1nc3c(-c4ccc(F)cc4C)cccn3n1)C2 (centres unmarked) [Example 42, (1-Ethyl-4,5,6,7-tetrahydro-1H-indazol-5-yl)-[8-(4-fluoro-2-methyl-phenyl)-[1,2,4]triazolo[1,5-a]pyridine-2-yl]-amine] | < 40 | 21 | < 40 | 37
CCn1ncc2c1C(C)CC(Nc1nc3c(-c4cc(F)c(F)c(F)c4)cccn3n1)C2 (centres unmarked) [Example 49, (1-Ethyl-7-methyl-4,5,6,7-tetrahydro-1H-indazol-5-yl)-[8-(3,4,5-trifluoro-phenyl)-[1,2,4]triazolo[1,5-a]pyridine-2-yl]-amine] | < 40 | 17 | 40 to 80 | 54
